The experiment addresses T1, NanoLuc-hACKR3 (Homo sapiens, UniProt P25106).
T1 construct: expressed in transfected cells; host or cells: HEK293T (transient, PEI; membrane preparation)
Description: NanoBRET binding study (displacement of fluorescently labelled CXCL12). The settings on record: displacement of 0.3 nM CXCL12-AF647; membranes of HEK293T cells expressing NanoLuc-ACKR3; 1 hour incubation; read-out: Affinity. How it is done:
Membranes of HEK293T cells that transiently express the NanoLuc-hACKR3 were produced. 2 million HEK293T cells were seeded per […] dish and were transfected the next day using a DNA/PEI-mix containing 0.25 μg plasmid DNA encoding for the ACKR3, 4.75 μg pcDEF3 plasmid DNA and 30 μg linear PEI. Two days after transfection, cells were collected in PBS and pelleted by centrifugation. Cell pellets were resuspended in ice-cold membrane buffer (15 mM Tris, 0.3 mM EDTA, 2 mM MgCl2, pH 7.4 at 4° C.) and were dounce-homogenized on ice by plunging the pestle […] with 1500 rpm. Cell homogenates were subsequently subjected to two freeze-thaw cycles using liquid nitrogen. Next, the cell homogenates were centrifuged at 40,000 g and pellets were resuspended in Tris-sucrose buffer (20 mM Tris, 250 mM Sucrose, pH 7.4 at 4° C.). Finally, the membrane samples were homogenized using a 23-gauge needle, snap-frozen with liquid nitrogen and stored until further experimentation at −80° C.
Binding reactions were measured in triplicate on white low-volume 384-well plates and started by combining 0.3 nM fluorescently labelled CXCL12 (CXCL12 labelled with a AF647® dye in a molar ratio of dye:peptide of 1:1, purchased from ALMAC, h-SDF-1α (AF647®), cat. No. CAF-11, Sequence:
[…](Ale xa647®)ALN), increasing concentrations of test compound (10^−5 M-10^−11 M) with 35 ng membranes (protein content) per well of HEK293T cells expressing the NanoLuc-ACKR3. All dilutions were prepared in HBSS supplemented with 0.2% BSA. After assembling the binding reaction, the plate was flash-centrifuged at 500 g. Binding reactions were then incubated for 1 hour after which NanoGlo substrate was added (310 times diluted from stock concentration) to a final volume of 13.5 μL. The reaction plate was again pulse-centrifuged to 500 g and the total light intensity was measured for 460 nm wavelength with 80 nm bandwidth and separately for wavelengths ≥610 nm using the PHERAstar-FSX (BMG Labtech, Ortenberg, Germany) with a dual emission filter. The ratio of light intensities (>610 nm over 460 nm) is a measure for the relative binding of CXCL12-A647 to the NanoLuc-ACKR3. The pharmacological data are presented in Appendix 1.
On the technique in general: Bioluminescence resonance energy transfer reports proximity on the nanometre scale.

T1 sequence (P25106 whole entry): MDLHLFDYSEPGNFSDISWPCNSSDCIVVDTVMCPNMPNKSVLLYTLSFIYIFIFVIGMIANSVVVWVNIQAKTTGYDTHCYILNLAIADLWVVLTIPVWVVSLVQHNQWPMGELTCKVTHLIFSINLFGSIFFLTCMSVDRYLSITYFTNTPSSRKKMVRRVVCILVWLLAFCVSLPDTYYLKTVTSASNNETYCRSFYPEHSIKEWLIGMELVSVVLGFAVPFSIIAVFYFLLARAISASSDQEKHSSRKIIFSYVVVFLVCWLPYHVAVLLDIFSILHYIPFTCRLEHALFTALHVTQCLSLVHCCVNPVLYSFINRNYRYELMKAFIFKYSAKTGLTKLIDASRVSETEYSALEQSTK

With `O=C(NCC1CCN(C(=O)c2cnc3ccccc3n2)CC1)c1cc(-c2ccc(F)cc2F)on1` [Molecule 12], the Ki is 1000 to 10000 nM.

`O=C(NCC1CCN(CCCc2ccccc2)CC1)c1cc(-c2ccc(F)cc2F)on1` [Molecule 24]: the Ki was at most 100 nM.

In the case of `O=C(NCC1CCN(Cc2ccc(F)cc2)CC1)c1cc(-c2ccc(F)cc2F)on1` [Molecule 52], the Ki lay in the range of 100 to 1000 nM.

On to `O=C(NCC1CCN(c2ccccc2)CC1)c1cc(-c2ccc(F)cc2F)on1` [Molecule 32], for which the Ki was over 10000 nM.

Take `O=C(NCC1CCN(Cc2ccccc2)CC1)c1cc(-c2ccc(F)cc2F)on1` [Molecule 17]: the Ki lay in the range of 100 to 1000 nM.

With `COc1cc(CN2CCC(CNC(=O)c3cc(-c4ccc(F)cc4F)on3)CC2)cc(OC)c1OC` [Molecule 47], the Ki was in the range of 100 to 1000 nM.

`O=C(NCC1CCN(C/C=C/c2ccccc2)CC1)c1cn(-c2ccc(F)cc2F)nn1` [Molecule 61]: the Ki is at most 100 nM.

`O=C(NCC1CCN(C/C=C/c2ccccc2)CC1)c1cnn(-c2ccc(F)cc2F)c1` [Molecule 64]: the Ki was in the range of 100 to 1000 nM.

Turning to `N#Cc1ccc(CN2CCC(CNC(=O)c3cc(-c4ccc(F)cc4F)on3)CC2)cc1` [Molecule 35], the Ki was over 10000 nM.

With `O=C(O)c1ccc(CN2CCC(CNC(=O)c3cc(-c4ccc(F)cc4F)on3)CC2)cc1` [Molecule 40], the Ki fell in the range of 1000 to 10000 nM.

Take `O=C(NCC1CCN(C/C=C/c2ccccc2)CC1)c1ncc(-c2ccc(F)cc2F)o1` [Molecule 94]: the Ki is 100 to 1000 nM.

For `O=C(NCC1CCN(C/C=C/c2ccccc2)CC1)c1cnc(-c2ccc(F)cc2F)s1` [Molecule 87], the Ki is at most 100 nM.

`O=C(NCC1CCN(Cc2cccnc2)CC1)c1cc(-c2ccc(F)cc2F)on1` [Molecule 29]: the Ki lay in the range of 100 to 1000 nM.

As to `O=C(NCC1CCN(Cc2ccc(OC(F)(F)F)cc2)CC1)c1cc(-c2ccc(F)cc2F)on1` [Molecule 38], the Ki was over 10000 nM.

As for `O=C(NCC1CCN(Cc2ccc([N+](=O)[O-])cc2)CC1)c1cc(-c2ccc(F)cc2F)on1` [Molecule 43], the Ki was over 10000 nM.

For `O=C(NCC1CCN(Cc2ccccn2)CC1)c1cc(-c2ccc(F)cc2F)on1` [Molecule 28], the Ki fell in the range of 100 to 1000 nM.

In the case of `O=C(NCC1CCN(C/C=C/c2ccccc2)CC1)c1nnc(-c2ccc(F)cc2F)o1` [Molecule 96], the Ki was at most 100 nM.

Turning to `O=C(NCC1CCN(Cc2ccc(O)cc2)CC1)c1cc(-c2ccc(F)cc2F)on1` [Molecule 50], the Ki is at most 100 nM.

Regarding `CN(C)c1ccc(CN2CCC(CNC(=O)c3cc(-c4ccc(F)cc4F)on3)CC2)cc1` [Molecule 37], the Ki was at most 100 nM.

On to `O=C(NCC1CCN(C/C=C/c2ccccc2)CC1)c1nc(-c2ccc(F)cc2F)c[nH]1` [Molecule 77], for which the Ki fell in the range of 1000 to 10000 nM.

As to `CC(=O)Nc1ccc(CN2CCC(CNC(=O)c3cc(-c4ccc(F)cc4F)on3)CC2)cc1` [Molecule 39], the Ki was at most 100 nM.

Consider `O=C(NCC1CCN(C/C=C/c2ccccc2)CC1)c1nnn(-c2ccc(F)cc2F)n1` [Molecule 72], for which the Ki lay in the range of 100 to 1000 nM.

For `O=C(NCC1CCN(C(=O)C2CC2)CC1)c1cc(-c2ccc(F)cc2F)on1` [Molecule 7], the Ki was over 10000 nM.

Consider `O=C(NCC1CCN(CC2CCCC2)CC1)c1cc(-c2ccc(F)cc2F)on1` [Molecule 16], for which the Ki was in the range of 100 to 1000 nM.

In the case of `CN(C)C(=O)c1cccc(CN2CCC(CNC(=O)c3cc(-c4ccc(F)cc4F)on3)CC2)c1` [Molecule 31], the Ki lay in the range of 1000 to 10000 nM.

For `O=C(NCC1CCN(CC2CCCCC2)CC1)c1cc(-c2ccc(F)cc2F)on1` [Molecule 22], the Ki was in the range of 1000 to 10000 nM.

In the case of `O=C(NCC1CCN(C/C=C/c2ccccc2)CC1)c1nc(-c2ccc(F)cc2F)cs1` [Molecule 80], the Ki lay in the range of 1000 to 10000 nM.

With `O=C(NCC1CCN(C2CCCCC2)CC1)c1cc(-c2ccccc2)on1` [Molecule 2], the Ki was over 10000 nM.

For `O=C(NCC1CCN(Cc2ccc(C(F)(F)F)cc2)CC1)c1cc(-c2ccc(F)cc2F)on1` [Molecule 51], the Ki is over 10000 nM.

With `O=C(NCC1CCN(CCc2ccccc2)CC1)c1cc(-c2ccc(F)cc2F)on1` [Molecule 23], the Ki lay within 100 to 1000 nM.

In the case of `O=C(NCC1CCN(C2CCCCCC2)CC1)c1cc(-c2ccc(F)cc2F)on1` [Molecule 20], the Ki was 100 to 1000 nM.

On to `O=C(NCC1CCN(C/C=C/c2ccccc2)CC1)c1nnc(-c2ccc(F)cc2F)s1` [Molecule 89], for which the Ki was at most 100 nM.

For `COc1ccc(CN2CCC(CNC(=O)c3cc(-c4ccc(F)cc4F)on3)CC2)cc1` [Molecule 27], the Ki was at most 100 nM.

For `O=C(NCC1CCN(C/C=C/c2ccccc2)CC1)c1nc(-c2ccc(F)cc2F)no1` [Molecule 99], the Ki is 100 to 1000 nM.

As to `O=C(NCC1CCN(Cc2ccc(Br)cc2)CC1)c1cc(-c2ccc(F)cc2F)on1` [Molecule 53], the Ki fell in the range of 100 to 1000 nM.

With `O=C(NCC1CCN(C/C=C/c2ccccc2)CC1)c1csc(-c2ccc(F)cc2F)n1` [Molecule 82], the Ki is 1000 to 10000 nM.

Take `COc1cccc(CN2CCC(CNC(=O)c3cc(-c4ccc(F)cc4F)on3)CC2)c1` [Molecule 26]: the Ki was at most 100 nM.

For `O=C(NCC1CCN(S(=O)(=O)C2CC2)CC1)c1cc(-c2ccc(F)cc2F)on1` [Molecule 14], the Ki is over 10000 nM.

For `O=C(NCC1CCN(C(=O)C2CCCCC2)CC1)c1cc(-c2ccc(F)cc2F)on1` [Molecule 9], the Ki was over 10000 nM.

Take `CN(C)C(=O)c1ccc(CN2CCC(CNC(=O)c3cc(-c4ccc(F)cc4F)on3)CC2)cc1` [Molecule 41]: the Ki is 1000 to 10000 nM.

For `Cc1ccc(CN2CCC(CNC(=O)c3cc(-c4ccc(F)cc4F)on3)CC2)cc1` [Molecule 33], the Ki is at most 100 nM.

As to `O=C(NCC1CCN(C(=O)C2CCC2)CC1)c1cc(-c2ccc(F)cc2F)on1` [Molecule 8], the Ki is over 10000 nM.

Take `O=C(NCC1CCN(Cc2ccncc2)CC1)c1cc(-c2ccc(F)cc2F)on1` [Molecule 30]: the Ki lay in the range of 1000 to 10000 nM.

Take `COC(=O)c1ccc(CN2CCC(CNC(=O)c3cc(-c4ccc(F)cc4F)on3)CC2)cc1` [Molecule 36]: the Ki was at most 100 nM.

As to `O=C(NCC1CCN(C/C=C/c2ccccc2)CC1)c1cc(-c2ccc(F)cc2F)on1` [Molecule 42], the Ki was at most 100 nM.

Take `NS(=O)(=O)c1ccc(CN2CCC(CNC(=O)c3cc(-c4ccc(F)cc4F)on3)CC2)cc1` [Molecule 49]: the Ki was in the range of 100 to 1000 nM.

With `COc1ccc(CN2CCC(CNC(=O)c3cc(-c4ccc(F)cc4F)on3)CC2)cc1OC` [Molecule 46], the Ki is at most 100 nM.

In the case of `COc1ccccc1CN1CCC(CNC(=O)c2cc(-c3ccc(F)cc3F)on2)CC1` [Molecule 25], the Ki was at most 100 nM.

Regarding `O=C(NCC1CCN(C2CCC2)CC1)c1cc(-c2ccc(F)cc2F)on1` [Molecule 18], the Ki lay in the range of 100 to 1000 nM.

On to `O=C(NCC1CCN(CCCCc2ccccc2)CC1)c1cc(-c2ccc(F)cc2F)on1` [Molecule 45], for which the Ki was at most 100 nM.

For the compound `O=C(NCC1CCN(C/C=C/c2ccccc2)CC1)c1cc(-c2ccc(F)cc2F)no1` [Molecule 92], the Ki is at most 100 nM.

Take `CS(=O)(=O)c1ccc(CN2CCC(CNC(=O)c3cc(-c4ccc(F)cc4F)on3)CC2)cc1` [Molecule 48]: the Ki fell in the range of 1000 to 10000 nM.

On to `O=C(NCC1CCN(C/C=C/c2ccccc2)CC1)c1cnn(-c2ccc(F)cc2F)n1` [Molecule 68], for which the Ki fell in the range of 1000 to 10000 nM.

With `O=C(NCC1CCN(C/C=C/c2ccccc2)CC1)c1cc(-c2ccc(F)cc2F)n[nH]1` [Molecule 58], the Ki was in the range of 1000 to 10000 nM.

Take `O=C(NCC1CCN(Cc2ccc(Cl)cc2)CC1)c1cc(-c2ccc(F)cc2F)on1` [Molecule 34]: the Ki was at most 100 nM.

As to `O=C(NCC1CCN(C/C=C/c2ccccc2)CC1)c1ncc(-c2ccc(F)cc2F)s1` [Molecule 85], the Ki was at most 100 nM.

On to `O=C(NCC1CCN(C2CCCC2)CC1)c1cc(-c2ccc(F)cc2F)on1` [Molecule 19], for which the Ki lay in the range of 100 to 1000 nM.

These data come from patent US20250170117A1, “MODULATORS OF ACKR3 AND USES THEREOF” (InterAx Biotech AG, priority 2022, published 2025).
